# According to patent US20220160652A1, “USE OF VITAMIN K IN COMBINATION WITH ANTICOAGULANTS” (KAYDENCE PHARMA AS, priority 2019, published 2022):
# How the values were obtained:
# Sprague-Dawley rats [1] = assay: Thrombin Time (TT) in treated Sprague-Dawley rats; assay type: in vivo, rat; settings: added to dabigatran and to rivaroxaban
# Procedure: To perform the study, 45 wild-type male Sprague-Dawley and 45 transgenic male Ren-2 rats [TGR(mREN-2)27] at the age of 10-11 weeks at the beginning of the treatment period were purchased from animal facility IKEM-CEM Institute of Clinical and Experimental Medicine (Prague, Czech Republic). All animals in the experiment were housed in individually ventilated cages (2-3 rats per cage) and kept in the animal rooms of JCET at a relative humidity of 55±10%, a temperature of 22±2 ° C., and a light cycle of 7 AM to 7 PM. The rats had free access to food and water. After delivery, animals were randomly divided into 10 experimental groups (5 or 10 rats per group), as indicated below in Table 1.
# Four days before the start of the treatment, the first part of animals' body weight and food intake was measured in selected representative three cages (rats n=9) to calculate the appropriate amount of tested compounds required for addition to the diet to obtain the dosing indicated in Table 1. It was estimated that food intake was approximately 30 g of chow per rat per day. […] The body mass of the rats was measured at the beginning and at the end of treatment.
# Prothrombin Time (PT), activated Partial Thromboplastin Time (aPTT), Thrombin Time (TT) and fibrinogen levels (Clauss method) were determined according to the manufacturer's instructions using Coag-Chrom 3003 apparatus (Bio-ksel, Grudziadz, Poland). […]
# VSMCs = assay: Vitamin K2 (MK-7) effect on ATP over time; assay type: cell-based; settings: 10 μM, indicated time points
# Procedure: This study was performed to investigate the effect of vitamin K2 (MK-7) on ATP over time. It is known that all cells, including VSMCs, proliferate. The term cell growth is used in the contexts of biological cell development and cell division (reproduction). When used in the context of cell division, it refers to growth of cell populations, where a cell, known as the “mother cell,” grows and divides to produce two “daughter cells” (M phase). When used in the context of cell development, the term refers to increase in cytoplasmic and organelle volume (G1 phase), as well as increase in genetic material (G2 phase) following the replication during S phase. When a cell is quiescent, this phase is called G0. Cell populations go through a particular type of exponential growth called doubling. Each generation of cells should be twice as numerous as the previous generation. However, the number of generations only gives a maximum figure as not all cells survive in each generation.
# To perform this study, first, VSCMs (5000 cells/well) were plated in 96-well plates and left to adhere overnight. […] Next, ATP was measured using mammalian lysis buffer for 5 minutes, after which 50 μL ATP substrate solution was added to the wells and incubated for 10 minutes in a dark environment. Finally, medium was transferred to a white plate to measure luminescence.
# [2] = test system: transgenic Ren-2 rats [TGR(mREN-2)27]; assay: T-TAS thrombus formation in whole blood of treated TGR (Ren-2) rats; assay type: in vivo, rat; settings: vitamin K2 (MK-7) added
# Procedure: This experiment was conducted in order to evaluate the effects of vitamin K2 (MK-7) on the anticoagulant activity of the new oral anticoagulants (NOAC) rivaroxaban and dabigatran using the T-TAS Total Thrombus-formation Analysis System. The T-TAS Total Thrombus-formation Analysis System is a microchip-based flow chamber system capable of evaluating whole-blood thrombogenicity. It is a useful tool in monitoring the efficacy of anticoagulants on thrombus formation and predicting the risk of bleeding complications. […] Four days before the start of the treatment, the first part of animals' body weight and food intake was measured in selected representative three cages (rats n=9) to calculate the appropriate amount of tested compounds required for addition to the diet to obtain the dosing indicated in Table 1. […] The body mass of the rats was measured at the beginning and at the end of treatment. At the beginning and at the end of treatment, the food intake per day was measured in representative group of animals to monitor the daily dosing of tested compounds (per kg of body mass). The thrombus formation in vitro was measured in whole blood using a microchip-based flow chamber system according to manufacturers' protocol (Total Thrombus-formation Analyser System, T-TAS; Fujimori Kogyo Co., Ltd., Tokyo, Japan). […]
# Sprague-Dawley rats [3] = assay: T-TAS thrombus formation in whole blood of treated Sprague-Dawley rats; assay type: in vivo, rat; settings: added to dabigatran and to rivaroxaban
# Procedure: This experiment was conducted in order to evaluate the effects of vitamin K2 (MK-7) on the anticoagulant activity of the new oral anticoagulants (NOAC) rivaroxaban and dabigatran using the T-TAS Total Thrombus-formation Analysis System. The T-TAS Total Thrombus-formation Analysis System is a microchip-based flow chamber system capable of evaluating whole-blood thrombogenicity. It is a useful tool in monitoring the efficacy of anticoagulants on thrombus formation and predicting the risk of bleeding complications. To perform the study, 45 wild-type male Sprague-Dawley and 45 transgenic male Ren-2 rats [TGR(mREN-2)27] at the age of 10-11 weeks at the beginning of the treatment period were purchased from animal facility IKEM-CEM Institute of Clinical and Experimental Medicine (Prague, Czech Republic). All animals in the experiment were housed in individually ventilated cages (2-3 rats per cage) and kept in the animal rooms of JCET at a relative humidity of 55±10%, a temperature of 22±2 ° C., and a light cycle of 7 AM to 7 PM. The rats had free access to food and water. After delivery, animals were randomly divided into 10 experimental groups (5 or 10 rats per group), as indicated below in Table 1. Four days before the start of the treatment, the first part of animals' body weight and food intake was measured in selected representative three cages (rats n=9) to calculate the appropriate amount of tested compounds required for addition to the diet to obtain the dosing indicated in Table 1. It was estimated that food intake was approximately 30 g of chow per rat per day. […] The body mass of the rats was measured at the beginning and at the end of treatment. At the beginning and at the end of treatment, the food intake per day was measured in representative group of animals to monitor the daily dosing of tested compounds (per kg of body mass). The thrombus formation in vitro was measured in whole blood using a microchip-based flow chamber system according to manufacturers' protocol (Total Thrombus-formation Analyser System, T-TAS; Fujimori Kogyo Co., Ltd., Tokyo, Japan). […]
smiles,measurement,setting,value
CC(C)=CCC/C(C)=C/CC/C(C)=C/CC/C(C)=C/CC/C(C)=C/CC/C(C)=C/CC/C(C)=C/CC1=C(C)C(=O)c2ccccc2C1=O [vitamin K2 (MK-7)],increase of thrombin time on addition of vitamin K2 (MK-7),Sprague-Dawley rats [1],5-7%
same,ATP production in VSMCs over time,VSMCs,stimulated ATP production in VSMCs
same,modification of the thrombus formation inhibition by dabigatran and rivaroxaban,[2],did not modify this effect significantly
same,formation of a clot (AUC) on addition of vitamin K2 (MK-7),Sprague-Dawley rats [3],did not prevent the formation of a clot
same,increase of occlusion Time (OT) on addition of vitamin K2 (MK-7),Sprague-Dawley rats [3],5-7%
